Data set [1] has as its system RAW 264.7 cells. In words: Assay for inflammation: TNFα secretion with peptides alone (ELISA). It is filed as cell-based, mouse. The protocol:
FIGS. 15A and 15B. FIG. 15A. Inhibition of endotoxin-stimulated TNFα secretion. RAW 264.7 macrophage cells were stimulated with 100 ng/ml LPS in the presence or absence of the PSP-derived peptides GK7, KL11 or GL13 (200 μg/ml). Polymyxin B (PMX) was used as a positive control. Further controls consisted of peptides alone without LPS stimulation. TNFα secretion was analyzed by ELISA of the RAW culture medium. The data are from triplicate RAW culture dishes for each condition. *) different from LPS alone P<0.03, **) P<0.0002. FIG. 15B. Dose response curve for the inhibition of LPS-induced TNFα secretion by GL-13.
To determine if the PSP peptides cause an inflammatory response in RAW 264.7 cells, the cells were incubated with each peptide for 24 h and TNFα secretion was quantitated by ELISA.
The vaccine adjuvant monophosphoryl lipid A (MPLA) a low-toxicity derivative of LPS was used to stimulate RAW cells in the presence or absence of PSP peptides (200 μg/ml) or the anti-inflammatory peptide polymyxin B (PMX). Control samples were incubated with the peptides alone.
For orientation: ELISA stands for enzyme-linked immunosorbent assay.

Another data set relates to C57BL/6 mice. In words: LPS sepsis model, D-galactosamine sensitized mice. It is filed as in vivo. As for the experimental part:
FIG. 18. GL-13 Protects Mice in an LPS Sepsis Model. C57BL/6 mice were sensitized with D-galactosamine and injected with 100 ng/mouse (50 μg/kg) of P. aeruginosa LPS that had been preincubated for 1 h RT with or without 100 μg/mouse of GL-13. Controls received LPS and 0.9% saline. […] The results are from two independent experiments.
C57BL/6 mice were sensitized with D-galactosamine and injected with 100 ng/mouse (50 μg/kg) of P. aeruginosa LPS that had been preincubated for 1 h RT with or without 100 μg/mouse of GL-13 (FIG. 18). Controls received LPS and 0.9% saline. […] The results are from two independent experiments.

The subject of data set [2] is RAW 264.7 cells. In words: Cell death assay, trypan blue. The class given is cell-based, mouse. The settings on record: 200 μg/ml, 24 h. As for the experimental part:
FIG. 21: RAW Cell Viability. RAW 264.7 cells were incubated with 200 μg/ml of PSP peptides for 24 h. At the end of the incubation period the cells were stained with trypan blue and photographed in the light microscope. No significant cell death was detected with any of the peptides.
The inventors have used three different assays for analysis of cytotoxicity in mammalian cells: trypan blue exclusion, […], and ATP production. Experiments have been performed with rat pituitary GH4C1 cells and mouse RAW 264.7 cells. The cells were incubated with PSP peptides for 24 h followed by staining with trypan blue to identify permeabilized and dead cells. […] Clear cytotoxicity was noted when the cells were incubated with LPS.
RAW 264.7 cells were incubated with 200 μg/ml of PSP peptides for 24 h. At the end of the incubation period the cells were stained with trypan blue and photographed in the light microscope. No significant cell death was detected with any of the peptides (FIG. 21).

A further data set deals with sheep red blood cells. In words: Hemagglutination assay. The class given is cell-based. The settings on record: PBS, absence of serum, 2 h. As for the experimental part: FIG. 22: Hemagglutination of sheep red blood cells. RBCs were washed in PBS and incubated for 2 h in microtiter plates in PBS±5% fetal calf serum. Peptide concentrations were 83 μg/ml. The microtiter plate was imaged. Agglutinated red blood cells form a wide mat of cells, while non-agglutinated cells form a button shaped pellet.
Briefly, unmodified sheep erythrocytes (Cappel, M P Biomedicals, Irvine, Calif.) were washed in PBS and suspended at 1% in PBS. Diluted erythrocytes and 20 μg/ml of each peptide in PBS were mixed in polypropylene microtiter plates (120 μl per well) and incubated for 2 h at 35° C. The plates were imaged on a Kodak Image station.

The conditions of data set [3]: preliminary results; mice I.P. injection.

“Also recorded” adds a separate entry of the source. No end group written: not given here.

The record followed here is US9914750B2, “Synthetic peptides and peptide mimetics” (University of Louisville Research Foundation, priority 2007, dated 2018).

For “GQIINLKASLDLL-NH2 [GL13-NH2, GQIINLKASLDLL-(CONH2)]”, the “TNFα secretion with peptide alone” value in the data set with RAW 264.7 cells [1] is “did not stimulate TNFα secretion”. The “lethality after intra-peritoneal injection” value in the data set with C57BL/6 mice is listed as “did not cause lethality”. Besides, in the data set on RAW 264.7 cells [2], the “cell death of RAW 264.7 macrophages, trypan blue” value is listed as “did not stimulate TNFα secretion or cause macrophage cell death; also recorded: did not cause cell death; also recorded: not cytotoxic to macrophages”. Moreover, the “hemagglutination (words)” value is given as “caused passive hemagglutination” in the data set with sheep red blood cells and “caused hemagglutination” with sheep red blood cells (listed as GL-13-NH2). Moreover, the “toxicity” value in data set [3] is on record as “low toxicity”.
